pIC50: −log10 of the molar value. Read-outs that look alike come from different tables or passages of the source. A value given as a limit tells only on which side of the number the result lay.

Experimental findings from patent US20040053219A1, “Method for analysing human immunodeficiency virus (HIV) phenotypic characteristics” (priority 2000, published 2004) are described below.

The subject of one data set is resistant virus LAI-L91H. Description: Susceptibility of recombinant HIV viruses to fusion inhibitors: LAI-L91H. It is filed as cell-based, HIV-1. The conditions noted are these: reference virus not given. From the text: (§1) The invention also relates to an analytical method to determine the susceptibility of an HIV virus to a fusion inhibiting compound targeting HIV-1 gp41 protein, consisting of performing the amplification in step b either with the pair of primers SEQ ID NO: 13, SEQ ID No: 14 followed by a second amplification with the pair of primers SEQ ID No: 15, SEQ ID No: 16, or with the pair of primers SEQ ID No: 17, SEQ ID No: 18 followed by a second amplification with the pair of primers SEQ ID No: 18, SEQ ID No: 16, adding said fusion inhibiting compound or not, possibly at different concentrations, during the culture of the cell host obtained in step e, before step f and comprising in step g the comparison of the expression of the marker gene with and without fusion inhibiting compound targeting HIV-1 gp41.
The recombinations obtained by performing the amplification of the step (b) with the pair of primers FuA: 5′[…]3′ (SEQ ID No: 23) et FuB: 5′ […]3′ (SEQ ID No: 24) followed by a second amplification step, performed with the primer FuC: 5′[…]3′ (SEQ ID No: 25) and a mixture of the following primers: FuD1: 5′[…]3′ (SEQ ID No: 26) FuD2: 5′[…]3′ (SEQ ID No: 27) are highly efficient. […]
The increase of the IC50index of the resistant virus LAI-L91H (Labrosse B. et al. J Virol. 2000 vol 74 pages 2142-2150) by reference to RPR103611 has been measured.

The subject of a further data set is NL4-3 reference virus. Description: Recombinant virus assay (RVA): susceptibility to reverse transcriptase inhibitors, single replication cycle, P4 indicator cells. It is filed as cell-based, HIV-1. The protocol:
(§2) The determination of the susceptibility of an HIV virus is performed as follows: 293 T cells are transfected with 7.5 μg of pSRT plasmid linearised with NruI, 0.1 μg of pVSV-G plasmid and 0.5 and 1 μg of product from the HIV reverse transcriptase PCR reaction. The transfection precipitate is removed from the cells after 18 hours of incubation and the fresh growth medium is added. After 24 hours of culture, the supernatant is clarified by centrifugation (500 g, 15 minutes) and transferred on P4 indicator cells which have been pre-incubated with serial dilutions of a reverse transcriptase inhibitor, in triplicate wells, for four hours. The range of inhibitor concentrations used varies according to the compounds. The signal produced by activating the marker gene was developed with CPRG for 48 hours, as for the analysis of the susceptibility to a reverse transcriptase inhibitor and the IC50 index was calculated using the median effect equation.
The pSRT plasmid comprising a deletion in the region coding for pol ranging from reverse transcriptase codon 24 (base 2618) to reverse transcriptase codon 432 (base 3872) includes all the mutations associated with a resistance phenomenon known to date. The homologous sequences of the PCR reverse transcriptase product ranging 88 base pairs upstream and 186 base pairs downstream from the deletion in pSRT. The transfections to determine the susceptibility to reverse transcriptase inhibitors are performed with a 293T cell line with a strong capacity to be transfected rather than with HeLa cells. This is not a problem since the cells are eliminated from the supernatant containing the virus by centrifugation before the transfer of P4 cells.
Given that the early phases of virus replication, including reverse transcription, take place in indicator P4 cells in this type of determination, these cells are treated with serial dilutions of reverse transcriptase inhibitors.
(§3) The inhibitor concentration ranges are selected as a function of the cellular toxicity of each compound and the IC50/IC90 ratio for the susceptibility of resistant isolates (Table 1). […] A range of four dilutions in series, starting at 200 μM, was used for abacavir, enabling the detection of up to 60 times more resistance.
For RVA reverse transcriptase, the IC50 index is used rather than the IC90 index since the detection of the IC90 index for resistant viruses could require toxic levels of compound for most reverse transcriptase inhibitors.

The test system of data set [1] is recombinant virus, specimen R1 (69N/T, 70R). The experiment in a line: RVA susceptibility to RTI, recombinant virus from patient specimen R1. It is filed as cell-based, HIV-1. The conditions noted are these: specimen R1, genotype 69N/T, ratio of IC50 of specimen to NL43 in parallel. The protocol:
as §2
(§4) The reproducibility of the method to determine the susceptibility of recombinant virus (RVA) to reverse transcriptase inhibitors (RTI) was evaluated with a series of tests on 5 specimens, selected so as to represent a wide range of susceptibility profiles, between 4 and 8 tests per specimen, using RNA preparations and separate PCR reactions.
(§5) (b) The Resistance Index is the ratio of the IC50 in the specimen with reference to that of NL43 determined in parallel.

Data set [2] deals with recombinant virus, specimen R2 (multi-compound resistance complex 62V, 75I, 77L, 116Y, 151M; 184V; 181C, 190A). The experiment in a line: RVA susceptibility to RTI, recombinant virus from patient specimen R2. Format: cell-based, HIV-1. The following applies: specimen R2, genotype 41L, 67N, 69N, 751, 77L, 115F, 208Y, 215F, 219Q, IC50 ratio to NL43, '>' = IC50 above the detectable range in all tests. As for the experimental part:
as §2, §4, §5

For data set [3], the system named is recombinant virus, specimen R3 (184V, 215F). Description: RVA susceptibility to RTI, recombinant virus from patient specimen R3. It is filed as cell-based, HIV-1. The conditions noted are these: specimen R3, genotype 184V, 21SF; IC50 ratio to NL43; '>' = IC50 above the detectable range in all tests. The protocol: as §2, §4, §5
For data set [4], the system named is recombinant virus, specimen R4 (41L, 67N, 69D, 184V, 190A, H208Y, 210W, 215Y). Description: RVA susceptibility to RTI, recombinant virus from patient specimen R4. Format: cell-based, HIV-1. The following applies: specimen R4, genotype 41L, IC50 ratio to NL43, '>' = IC50 above the detectable range in all tests. As for the experimental part:
as §2, §4, §5

The subject of data set [5] is recombinant virus, specimen R5 (215Y, 41L, 74V, 100I, 103N). Description: RVA susceptibility to RTI, recombinant virus from patient specimen R5. Format: cell-based, HIV-1. The conditions noted are these: for susceptibility / level of resistance (in words): specimen R5; for Resistance Index (geometric mean): specimen R5, genotype 215Y, 41L, 74V, 100I, 103N, IC50 ratio to NL43, '>' = IC50 above the detectable range in all tests. As for the experimental part:
as §2, §4, §5

In data set [6] the test system is 22 viruses from specimens of patients with a standard treatment. Description: RVA susceptibility to RTI, panel of 22 patient viruses compared with NL43. It is filed as cell-based, HIV-1. The conditions noted are these: for median RI (Resistance Index): median over 22 viruses, 3 RVA replicates, reference NL43. As for the experimental part:
as §2
To determine whether NL43 is a suitable reference virus for comparison with clinical isolates, a panel of specimens taken from patients with a standard treatment were tested on 3 RVA replicates for their susceptibility to reverse transcriptase inhibitors.

In data set [7] the test system is highly resistant virus NL-DIM. The experiment in a line: Susceptibility of recombinant HIV viruses to fusion inhibitors: NL-DIM. It is filed as cell-based, HIV-1.
Description: as §1, with “gp41. […]” for “gp41.”
(§6) The IC50 index for a highly resistant virus NL-DIM ( Rimski L. T. et al. J. Virol. 1998, vol 72, pages 986-993) and for the NL4.3 virus (which is partially resistant) has been measured by reference to the DP178 inhibitor.

The subject of data set [8] is NL4.3 virus (partially resistant). Description: Susceptibility of recombinant HIV viruses to fusion inhibitors: NL4.3. Format: cell-based, HIV-1.
Description: as §1, with “gp41. […]” for “gp41.”
as §6

The test system of a further data set is P4 cells. Format: cell-based. The conditions noted are these: cellular toxicity for P4 indicator cells. The protocol: as §3
[9] abbreviates: Human immunodeficiency virus 1, NL43, NL4-3 reference virus, P4 cells, geometric mean of 20 repeated tests, read-out: Geometric mean IC50.
The mark [10] stands for this setting: Human immunodeficiency virus 1, NL43, read-out: Geometric mean IC50.

As to `C=C(C)[C@@H]1CC[C@]2(C(=O)NCCCCCCCC(=O)N[C@@H](CC(C)C)[C@@H](O)CC(=O)O)CC[C@]3(C)[C@H](CC[C@@H]4[C@@]5(C)CC[C@H](O)C(C)(C)[C@@H]5CC[C@]43C)[C@@H]12` [RPR103611], the “increase of IC50 index” value in the data set with resistant virus LAI-L91H is “more than 100 times”.

On to `Cc1ccnc2c1NC(=O)c1cccnc1N2C1CC1` [Nevirapine, nevirapine], for which the pIC50 in the data set with NL4-3 reference virus (setting [9]) is 7.43. In addition, the “Resistance Index (geometric mean)” value is given as 2.2 in data set [1]; “>” in data set [2]; 1.2 in data set [3]; 1.2 in data set [4]; 580.5 in data set [5]. The “susceptibility / level of resistance (in words)” value (shortened to “susceptibility / level”) in data set [5] is “high levels of resistance”. Besides, in [6] (one virus of the panel with mutation on codon 98 (A for S) of reverse transcriptase), the resistance index is reported as 11.0.

As for `O=C1Nc2ccc(Cl)cc2[C@@](C#CC2CC2)(C(F)(F)F)O1` [Efavirenz, efavirenz], in the data set on NL4-3 reference virus (setting [10]), the pIC50 was 6.15. The “Resistance Index (geometric mean)” value in data set [1] is given as 1.0; in data set [2] it was 74.9; in [3], 1.0; in [4] it was 1.0; in data set [5], “>”. The “susceptibility / level” value in data set [5] is “high levels of resistance”.

Consider `Cc1cn([C@H]2C[C@H](N=[N+]=[N-])[C@@H](CO)O2)c(=O)[nH]c1=O` [AZT, zidovudine], for which the pIC50 with NL4-3 reference virus (setting [9]) is 7.74. Further, the “susceptibility / level” value in [5] was “remains susceptible”.

As for enfuvirtide, the “increase of IC50 index” value in data set [7] (NL-DIM by reference to LAI virus (culture adapted)) is on record as “more than 100 times”; in data set [7] (NL-DIM by reference to T5A1 virus (primary plasma virus)), “more than 80 times”; in data set [8] (NL4.3 by reference to LAI), 12,5 times; in data set [8] (NL4.3 by reference to T5A1 virus) it was 10 times.

With `O=c1[nH]cnc2c1ncn2[C@H]1CC[C@@H](CO)O1` [DDI], the pIC50 in the data set with NL4-3 reference virus (NL4-3 reference virus, P4 cells, geometric mean of 20 repeated tests, read-out: Geometric mean IC50) is 5.79. Moreover, the “Resistance Index (geometric mean)” value is on record as 1.4 in data set [1]; 26.9 in [2]; 3.1 in data set [3]; 3.1 in data set [4]; 2.6 in data set [5].

Take `Cc1cn([C@H]2C=C[C@@H](CO)O2)c(=O)[nH]c1=O` [D4T, stavudine]: in the data set on NL4-3 reference virus (setting [10]), the pIC50 was 6.35. Further, the “Resistance Index (geometric mean)” value is on record as 1.4 in data set [1]; 43.5 in data set [2]; 3.2 in [3]; 3.6 in [4]; 1.7 in data set [5]. In [6], the “median RI (Resistance Index)” value was “approximately 0.92”.

On to `Nc1nc(NC2CC2)c2ncn([C@H]3C=C[C@@H](CO)C3)c2n1` [Abacavir, abacavir], for which the negative-log IC50 (pIC50) with NL4-3 reference virus (setting [9]) was 5.65. Also, the “IC50 index / toxicity for P4 cells” value in the data set on P4 cells was “approximately 250 μM”. The “Resistance Index (geometric mean)” value in [1] is given as 1.1; in data set [2], “>”; in [3] it was 4.3; in data set [4], 4.3; in [5], 1.7.

For the molecule `Nc1ccn([C@@H]2CS[C@H](CO)O2)c(=O)n1` [3TC, lamivudine], the pIC50 with NL4-3 reference virus (setting [9]) is 5.82. The “Resistance Index (geometric mean)” value came to 1.3 in data set [1] and 1.8 in [5]. Also, the “median RI (Resistance Index)” value in data set [6] is listed as approximately 1.22.

A word on the pIC50: it is −log10 of the IC50, conventionally taken in molar units.
